Patent publication US20090099099A1, “Isoflavone Glycosides as Peroxisome Proliferator-Activated Receptor-alpha Modulator” (priority 2007, published 2009)
Like-named read-outs stand apart in the source and are kept apart here.

Legend:
PPAR-α [1] = experiment: Protein immuno-blotting of PPAR-α expression in HepG2 cells; format: cell-based, human; details: puerarin 1-100 μM, 24 hours, Western blotting
Procedure: FIG. 2. Expression of PPAR-α in HepG2 cells. Cells were incubated in puerarin (1-100 μM) for 24 hrs. Whole cell lysate were collected and PPAR-α expression was probed using anti-PPAR-α (Santa Cruz, Calif.) in Western blotting. Each lane was loaded with 50 μg protein from cell lysate. Expression of actin was also probed to ensure protein loading.
Cell Cultures HepG2 cells was purchased from American Type Culture Collection (Manassas, Va.). They were maintained in DMEM containing 10% heat-inactivated fetal bovine serum and 1% penicillin/streptomycin in tissue culture dishes incubated in 95% air/5% CO2, at 37° C. The media were changed 2 times per week until the cells were confluent.
Protein immuno-blotting of PPAR-α. HepG2 cells were collected in RIPA buffer (150 mM NaCl, 1% Triton X-100, 1% sodium deoxycholate, 0.1% sodium dodecyl sulfate, 50 mM Tris-HCl, 2 mM EDTA, pH 7.5) with protease inhibitors (Mini-Complete protease inhibitor cocktail tablets (Roche Diagnostics, Mannheim, Germany)] after incubated in puerarin (1-100 μM) for 24 hours. The protein content of the cell lysate was quantified by using a protein assay kit (Bio-Rad Lab, Hercules Calif.). Protein (50 μg) from the whole cell lysate was loaded in each lane of a polyacrylamide (10%) gel, eletrophoresed and blotted to a polyvinylidene difluoride (PVDF) membrane. […]

[2] = mice; cited from earlier work
[3] = cited from earlier work
[4] = rats, oral intake; cited from earlier work
[5] = Body weights of SHRSP rats treated by gavage for 5 months; format: in vivo
Procedure: FIG. 3. Effects of puerarin on the body weights of rats. The rats were fed on a normal chow diet for 5 months starting when they were 4 weeks old. The rats were treated by gavage either with vehicle (normal saline) or puerarin (250 mg/Kg/day in a single dose in normal saline). The data were compared statistically by using two-way ANOVA with n=8 in each group.
Spontaneously hypertensive stroke-prone (SHRSP) male rats were fed on a normal chow diet for 5 months starting when they were 4 weeks old. The rats were treated by gavage either with vehicle (normal saline) or puerarin (250 mg/Kg/day in a single dose in normal saline). Their blood pressures and body weights were monitor everyday for 5 months.

PPAR-α [6] = target: T1, PPAR-α (Homo sapiens, UniProt Q07869); details: cited from earlier work
T1 sequence (Q07869 1-468): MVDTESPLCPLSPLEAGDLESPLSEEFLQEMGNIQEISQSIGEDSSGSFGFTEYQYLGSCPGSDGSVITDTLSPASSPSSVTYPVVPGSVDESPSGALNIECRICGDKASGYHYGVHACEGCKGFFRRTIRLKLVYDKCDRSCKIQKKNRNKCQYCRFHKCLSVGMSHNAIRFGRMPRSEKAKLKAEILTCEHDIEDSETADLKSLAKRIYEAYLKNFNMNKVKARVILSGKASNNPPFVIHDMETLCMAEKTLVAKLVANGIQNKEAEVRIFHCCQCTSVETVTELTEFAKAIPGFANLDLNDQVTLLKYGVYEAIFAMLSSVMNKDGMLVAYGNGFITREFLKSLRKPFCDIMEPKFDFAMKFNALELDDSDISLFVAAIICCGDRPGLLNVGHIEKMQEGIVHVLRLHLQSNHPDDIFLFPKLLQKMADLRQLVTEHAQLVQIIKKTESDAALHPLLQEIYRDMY

| Compound | PPAR-α expression (PPAR-α [1]) | effect on glucose tolerance [2] | Effects ([3]; AMI patients (Xiao et al., 2004)) | Effects ([3]; Angina patients (Yang et al., 1990)) | Effects ([3]; CHD patients (Xie et al., 2003)) | Effects ([3]; Chronic heart failure patients (Duan et al., 2000)) | Effects ([3]; Coronary heart disease (CHD) patients (Shi et al., 2002)) | Effects ([3]; Diabetic retinopathy patients (Ren et al., 2000)) | Effects ([3]; Unstable angina (UA) patients (Luo and Zheng, 2001)) | absorption from the intestine [4] | metabolism in the blood [4] | body weights, treatment group vs control group (two-way ANOVA) ([5]; 250 mg/Kg/day by gavage, 5-month period, n=8, P<0.001) | toxicity ([5]; 250 mg/Kg/day orally, 5 months, rats) | body weight less than the control rats in average ([5]; 250 mg/Kg/day orally, over 5 months period, SHRSP male rats, normal chow diet) | activation of PPAR-α (PPAR-α [6]) |
| --- | --- | --- | --- | --- | --- | --- | --- | --- | --- | --- | --- | --- | --- | --- | --- |
| O=c1c(-c2ccc(O)cc2)coc2c([C@@H]3O[C@H](CO)[C@@H](O)[C@H](O)[C@H]3O)c(O)ccc12 [puerarin, 4H-1-Benzopyran-4-one, 8-β-D-glucopyranosyl-7-hydroxy-3-(4-hydroxyphenyl)] | upregulated | improves glucose tolerance | ↓ the infarction size, ↓free fatty acids | Anti-angina, reducing both systolic | Simulate the late phase of ischemic | ↓ oxidized-LDL, improve heart | Improve insulin resistance, and insulin | ↓ blood viscosity, improve | ↓ platelet granule membrane protein | rapidly absorbed | mostly remains unmetabolized | significantly different | no apparent toxicity | 13% | – |
| O=c1c(-c2ccc(O)cc2)coc2cc(O)ccc12 [daidzein] | – | – | – | – | – | – | – | – | – | – | – | – | – | – | activate PPAR-α |
| O=c1c(-c2ccc(O)cc2)coc2cc(O[C@@H]3O[C@H](CO)[C@@H](O)[C@H](O)[C@H]3O)ccc12 [daidzin, reference compound] | – | impairs glucose tolerance | – | – | – | – | – | – | – | – | – | – | – | – | – |
